In US11672775B2, “Treprostinil prodrugs” (United Therapeutics Corporation, priority 2016, dated 2023):
Converted amounts (≈) assume the structure as drawn. Read-outs that look alike come from different tables or passages of the source.

Assays:
[1] = Equilibrium solubility in vehicle; type: physicochemical; conditions: aqueous buffer, thermodynamic from solid, 20 mM sodium phosphate dibasic with 125 mM sodium chloride; for solubility thermodynamic at 23 h: T0 hours, read-out: Equilibrium solubility, T0 hours Concentration; for solubility thermodynamic at 24 h: T24 hours, read-out: Equilibrium solubility, T24 hours Concentration; for solubility thermodynamic at 72 h: T72 hours, read-out: Equilibrium solubility, T72 hours Concentration
Description: (§1) Each prodrug was dissolved in a vehicle containing 20 mM sodium phosphate dibasic with 125 mM sodium chloride. Prodrugs were prepared at saturation concentrations by weighing 15-30 mg of prodrug in to a 4 mL clear glass vial and dissolving in an appropriate volume of vehicle (0.5-1.0 mL) to achieve a nominal saturation concentration of 30 mg/mL. The solutions were mixed for 23 hours on a rotating mixer. […] The resultant supernatant solutions were isolated from undissolved prodrug by centrifugation at 15000 RPM for 15 min. Supernatants were transferred to clear glass vials and stored at ambient temperature. […] The resultant samples were assayed against treprostinil to determine prodrug concentration. At each testing interval (0, 24, 72 hours) the supernatant was assayed for prodrug concentration and purity by area %.

[2] = Solution stability in vehicle (UPLC area %); type: physicochemical; conditions: for Solution stability, T0 Purity: ambient
Description: as §1

[3] = Stability in 200 mM potassium phosphate buffer (pH 7.4); type: physicochemical; conditions: 1 μM
Description: According to the earlier aqueous solution stability study, all prodrugs are stable in 20 mM Sodium Phosphate dibasic with 125 mM NaCl at saturation concentrations (3-30 mg/ml). Also, in the method development work, it was also observed that the most unstable prodrugs III, IV and XIV were stable in 200 mM potassium phosphate buffer (pH 7.4) at a low concentration of 1 μM.

[4] = In vitro metabolic stability of prodrugs in liver microsomes, across all species; type: in vitro ADME, human, Beagle dog, Sprague Dawley rat, Cynomolgus monkey
Description: In the second assay, four prodrugs (III, IV, VII and XIV) were tested in Cyno monkey liver microsomes.

DP1 receptor = biological target: T1, DP1 receptor (Homo sapiens, UniProt Q13258); assay: cAMP assay (TR-FRET or HTRF kit, forskolin), Examples 5 and 6; type: cell-based; conditions: read-out: EC50, DP receptor
T1 construct: expressed in transfected cells
T1 sequence (Q13258 1-359): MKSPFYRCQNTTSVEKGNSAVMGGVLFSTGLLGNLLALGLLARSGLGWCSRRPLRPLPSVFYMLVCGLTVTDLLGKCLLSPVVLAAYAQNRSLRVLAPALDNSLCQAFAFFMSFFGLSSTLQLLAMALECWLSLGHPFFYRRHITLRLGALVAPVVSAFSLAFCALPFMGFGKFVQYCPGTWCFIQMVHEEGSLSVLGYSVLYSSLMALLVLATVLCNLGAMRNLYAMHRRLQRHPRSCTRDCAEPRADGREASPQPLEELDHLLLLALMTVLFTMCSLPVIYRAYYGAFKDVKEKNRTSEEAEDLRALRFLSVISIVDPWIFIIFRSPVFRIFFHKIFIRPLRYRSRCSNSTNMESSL
Description: (§2) [table] Prodrug XV (for structure see FIG. 10) as well as treprostinil were tested for 3 G-protein-coupled receptors (GPCRs), namely DP1, EP2, and IP, using cyclic adenosine monophosphate (cAMP) assay. Cyclic AMP assay kits: Multiscreen™ TR-FRET cAMP 1.0 No Wash Assay Kit (Multispan, Inc., Cat #MSCM01-25) and HTRF cAMP HiRange Kit (CisBio, Cat #62AM6PEC). Instruments: FlexStation III (Molecular Devices). Cyclic AMP (cAMP) Assay: cAMP assays were performed according to the manufacturer's protocol using Multiscreen™ TR-FRET cAMP 1.0 No Wash Assay Kit or HTRF cAMP HiRange Kit. […] The reaction was terminated by sequentially adding sequentially adding trFluor™ Eu-labeled cAMP and trFluor™ 650-labeled anti-cAMP antibody or D2-labeled cAMP and cryptate-labeled anti-cAMP antibody in lysis buffer. The plate was then incubated at room temperature for 60 minutes before reading fluorescent emissions at 620 nm and 665 or 668 nm with excitation at 314 nm on FlexStation III (Molecular Devices). Cyclic AMP (cAMP) assays: Cyclic AMP assay results are shown as “Ratio 665/620×10,000” (ratio of fluorescence at 665 nm and 620 nm×10,000) or “Ratio 668/620×10,000” (ratio of fluorescence at 668 nm and 620 nm×10,000). Data in graphs were represented in Mean±SD. Dose-dependent responses were fitted with sigmoidal dose-response curves allowing variable slopes using GraphPad Prism versions 4, 5 or 6 (Graphpad Prism). Treprostinil Prodrug XIV (for structure see FIG. 10) as well as treprostinil were tested for 3 G-protein-coupled receptors (GPCRs), namely DP1, EP2, and IP, using cyclin adenosine monophosphate (cAMP) assay. Cyclic AMP assay kits: Multiscreen™ TR-FRET cAMP 1.0 No Wash Assay Kit (Multispan, Inc., Cat #MSCM01-25) and HTRF cAMP HiRange Kit (CisBio, Cat #62AM6PEC). Cyclic AMP (cAMP) Assay: cAMP assays were performed according to the manufacturer's protocol using Multiscreen™ TR-FRET cAMP 1.0 No Wash Assay Kit or HTRF cAMP HiRange Kit. […] The reaction was terminated by sequentially adding sequentially adding trFluor™ Eu-labeled cAMP and trFluor™ 650-labeled anti-cAMP antibody or D2-labeled cAMP and cryptate-labeled anti-cAMP antibody in lysis buffer. The plate was then incubated at room temperature for 60 minutes before reading fluorescent emissions at 620 nm and 665 or 668 nm with excitation at 314 nm on FlexStation III (Molecular Devices). Cyclic AMP (cAMP) assays: Cyclic AMP assay results are shown as “Ratio 665/620×10,000” (ratio of fluorescence at 665 nm and 620 nm×10,000) or “Ratio 668/620×10,000” (ratio of fluorescence at 668 nm and 620 nm×10,000). Data in graphs were represented in Mean±SD. Dose-dependent responses were fitted with sigmoidal dose-response curves allowing variable slopes using GraphPad Prism versions 4, 5 or 6 (Graphpad Prism).

EP2 receptor = biological target: T2, EP2 receptor (Homo sapiens, UniProt P43116); assay: as above; type: cell-based; conditions: read-out: EC50, EP receptor
T2 construct: expressed in transfected cells
Description: as §2

IP1 receptor = biological target: T3, IP1 receptor (Homo sapiens, UniProt P43119); assay: as above; type: cell-based; conditions: read-out: EC50, IP receptor
T3 construct: expressed in transfected cells
Description: as §2

Sprague Dawley rats [5] = assay: Rat intraplantar injection model, von Frey test (Example 10); type: in vivo, Sprague Dawley rat; conditions: 1 μg/mL or 100 μg/mL; 15 and 90 minutes post-injection
Description: (§3) Male Sprague Dawley rats (n=56) were allocated into 7 groups of 8 animals per group. […] Each group was compared to the phosphate buffer (50-mM phosphate buffer with 50-mM sodium chloride at pH=7.4) treated group, which served as the control (Group 1).
(§4) Animals were administered 0.1 mL of test material by subcutaneous injection into the paw pad (Intraplantar injection) at time zero. Then, the animals were subsequently evaluated for their response to mechanical (von Frey filaments) and thermal stimuli, 15 and 90 minutes post-injection. The von Frey test was conducted prior to the thermal test, which followed immediately within minutes for each animal. In addition, clinical observation scoring of the animal's reaction to injection was conducted.
Mechanical pain sensitivity was tested using the von Frey test, which measures the withdrawal force threshold of the animals. The lower the force applied represents a greater sensitivity to the stimulus. The von Frey test was performed 15 and 90 minutes post-test item injection.

Sprague Dawley rats [6] = assay: Rat intraplantar injection model, thermal pain sensitivity (Example 10); type: in vivo, Sprague Dawley rat; conditions: 1 μg/mL or 100 μg/mL; 15 minutes post-administration
Description: as §3, §4
The sensitivity of animals to a thermal pain stimulus was assessed immediately following the von Frey test. The time until withdrawal of the right-injected leg from a heat source was measured, and the lower (faster) the time of response represents a greater sensitivity to the stimulus. The test was performed 15 and 90 minutes post-test item injection.

[7] = 20 mM sodium phosphate dibasic with 125 mM sodium chloride, T0

T3 sequence (P43119 whole entry): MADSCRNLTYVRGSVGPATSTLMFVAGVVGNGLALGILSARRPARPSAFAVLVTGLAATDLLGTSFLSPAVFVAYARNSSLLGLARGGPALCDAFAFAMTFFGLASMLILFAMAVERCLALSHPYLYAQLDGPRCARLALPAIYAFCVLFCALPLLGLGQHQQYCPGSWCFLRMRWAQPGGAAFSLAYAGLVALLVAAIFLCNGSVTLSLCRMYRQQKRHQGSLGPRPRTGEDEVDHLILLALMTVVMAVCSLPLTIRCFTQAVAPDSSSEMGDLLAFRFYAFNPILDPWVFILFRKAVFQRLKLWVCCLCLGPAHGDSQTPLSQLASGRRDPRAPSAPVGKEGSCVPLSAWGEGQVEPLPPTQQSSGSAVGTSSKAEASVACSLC
T2 sequence (P43116 whole entry): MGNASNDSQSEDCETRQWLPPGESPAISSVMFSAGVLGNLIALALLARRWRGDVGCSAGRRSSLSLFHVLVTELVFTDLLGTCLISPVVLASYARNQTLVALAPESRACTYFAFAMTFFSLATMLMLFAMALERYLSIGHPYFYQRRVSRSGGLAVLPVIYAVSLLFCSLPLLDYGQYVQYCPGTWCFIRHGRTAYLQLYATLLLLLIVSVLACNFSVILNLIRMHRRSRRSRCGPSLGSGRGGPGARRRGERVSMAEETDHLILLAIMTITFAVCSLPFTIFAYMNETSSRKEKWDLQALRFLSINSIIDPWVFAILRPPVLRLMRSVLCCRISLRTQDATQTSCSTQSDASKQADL

Row | SMILES | solubility thermodynamic at 23 h [1] | solubility thermodynamic at 24 h [1] | solubility thermodynamic at 72 h [1] | Solution stability, T0 Purity [2, 7] | Solution stability, T24 hours Purity ([2]; same vehicle) | Solution stability, T72 hours Purity ([2]; same vehicle) | stability in buffer [3] | relative stability of the prodrugs in liver microsomes [4] | also measured
1 | CCCCC[C@@H](CC[C@@H]1[C@H]2Cc3cccc(OCC(=O)O)c3C[C@H]2C[C@H]1O)OC(=O)OC [Prodrug IV, side chain methyl carbonate of treprostinil] | 12.5 mg/mL (≈ 27.9 mM) | 12.2 mg/mL (≈ 27.2 mM) | 12.9 mg/mL (≈ 28.8 mM) | 99.19 % Area | 99.02 % Area | 99.15 % Area | stable | least stable | –
2 | CCCCC[C@H](O)CC[C@@H]1[C@H]2Cc3cccc(OCC(=O)NS(C)(=O)=O)c3C[C@H]2C[C@H]1O [Prodrug XIV, treprostinil methanesulfonamide] | 29.5 mg/mL (≈ 63.1 mM) | 27.5 mg/mL (≈ 58.8 mM) | 26.6 mg/mL (≈ 56.9 mM) | 94.20 % Area | 94.25 % Area | 94.56 % Area | stable | least stable | EC50 (DP1 receptor; Table 4 (Example 6)): 38.8 nM; EC50 (EP2 receptor; Table 4 (Example 6)): 67 nM; EC50 (IP1 receptor; Table 4 (Example 6)): 3.33 nM; solubility at 23 h ([1]; approximate, read-out: Solubility in the selected vehicle): ~30 mg/mL (≈ 64.2 mM); T0 Residual Treprostinil [2, 7]: 0.08 % Area; treprostinil formation in the vehicle ([2]; formed over 72 hours): 0.15%; T24 Residual Treprostinil ([2]; same vehicle, T24): 0.13 % Area; T72 Residual Treprostinil ([2]; same vehicle, T72): 0.23 % Area
3 | CCCCC[C@H](O)CC[C@@H]1[C@H]2Cc3cccc(OCC(=O)OCC(=O)O)c3C[C@H]2C[C@H]1O [Prodrug XV] | – | – | – | – | – | – | – | – | EC50 (DP1 receptor; Table 3 (Example 5)): 6.99 nM; EC50 (EP2 receptor; Table 3 (Example 5)): 41.5 nM; EC50 (IP1 receptor; Table 3 (Example 5)): 4.28 nM; von Frey withdrawal force threshold vs phosphate buffer group (Sprague Dawley rats [5]): reduced withdrawal force threshold; thermal paw withdrawal time vs phosphate buffer treated group (Sprague Dawley rats [6]): statistically significantly faster paw withdrawal time
